Reference: ChEMBL document CHEMBL4665648, “Potent and selective inhibitors of receptor-interacting protein kinase 1 that lack an aromatic back pocket group” (Bioorg Med Chem Lett, 2019)

What was measured:
[1] = biological target: Eukaryotic elongation factor 2 kinase (Homo sapiens) (UniProt O00418); test: Inhibition of recombinant human GST-tagged full length EEF2K expressed in Escherichia coli expression system using Ser/Thr 24 as substrate at 10 uM incubated for 60 mins by Z'-Lyte assay relative to control
[2] = biological target: Serine/threonine-protein kinase Chk2 (Homo sapiens) (UniProt O96017); test: Inhibition of recombinant human His-tagged full length CHK2 expressed in baculovirus expression system using Ser/Thr 07 as substrate at 10 uM incubated for 60 mins by Z'-Lyte assay relative to control
[3] = test system: Epidermal growth factor receptor (Homo sapiens), P00533 [L858R,T790M]; test: Inhibition of recombinant human GST-tagged EGFR T790M/L858R double mutant (668 to 1210 residues) expressed in baculovirus expression system using Tyr 4 as substrate at 10 uM incubated for 60 mins by Z'-Lyte assay relative to control
[4] = biological target: Epidermal growth factor receptor (Homo sapiens) (UniProt P00533); test: Inhibition of recombinant human GST-tagged EGFR (668 to 1210 residues) expressed in baculovirus expression system using Tyr 4 as substrate at 10 uM incubated for 60 mins by Z'-Lyte assay relative to control
[5] = biological target: Activated CDC42 kinase 1 (Homo sapiens) (UniProt Q07912); test: Inhibition of tracer 236 binding to recombinant human GST-tagged TNK2 (110 to 476 residues) expressed in baculovirus expression system at 10 uM incubated for 60 mins by Lanthascreen assay relative to control
[6] = biological target: Mitogen-activated protein kinase 10 (Homo sapiens) (UniProt P53779); test: Inhibition of recombinant human N-terminal GST-tagged full length JNK3 expressed in baculovirus expression system using Ser/Thr 04 as substrate at 10 uM incubated for 60 mins by Z'-lyte assay relative to control
[7] = biological target: Tyrosine-protein kinase Fes/Fps (Homo sapiens) (UniProt P07332); test: Inhibition of recombinant human His-tagged full length FES expressed in baculovirus expression system using Tyr 01 as substrate at 10 uM incubated for 60 mins by Z'-Lyte assay relative to control
[8] = biological target: High affinity nerve growth factor receptor (Homo sapiens) (UniProt P04629); test: Inhibition of recombinant human His-tagged TRKA (441 to 796 residues) expressed in baculovirus expression system using Tyr 01 as substrate at 10 uM incubated for 60 mins by Z'-Lyte assay relative to control
[9] = biological target: Macrophage-stimulating protein receptor (Homo sapiens) (UniProt Q04912); test: Inhibition of recombinant human GST-tagged full length RON (983 to 1400 residues) expressed in baculovirus expression system using Tyr 06 as substrate at 10 uM incubated for 60 mins by Z'-Lyte assay relative to control
[10] = biological target: Non-receptor tyrosine-protein kinase TYK2 (Homo sapiens) (UniProt P29597); test: Inhibition of recombinant human N-terminal GST-tagged TYK2 (833 to 1187 residues) expressed in baculovirus expression system using Tyr 03 as substrate at 10 uM incubated for 60 mins by Z'-Lyte assay relative to control
[11] = biological target: Serine/threonine-protein kinase PLK3 (Homo sapiens) (UniProt Q9H4B4); test: Inhibition of recombinant human GST-tagged PLK3 (58 to 340 residues) expressed in baculovirus expression system using Ser/Thr 16 as substrate at 10 uM incubated for 60 mins by Z'-lyte assay relative to control
[12] = biological target: Receptor-type tyrosine-protein kinase FLT3 (Homo sapiens) (UniProt P36888); test: Inhibition of recombinant human His-tagged FLT3 (564 to 958 residues) expressed in baculovirus expression system using Tyr 02 as substrate at 10 uM incubated for 60 mins by Z'-Lyte assay relative to control
[13] = biological target: Serine/threonine-protein kinase Sgk1 (Homo sapiens) (UniProt O00141); test: Inhibition of recombinant human GST-tagged full length SGK1 (60 to 431 residues) expressed in baculovirus expression system using Ser/Thr 06 as substrate at 10 uM incubated for 60 mins by Z'-Lyte assay relative to control
[14] = biological target: Activin receptor type-1B (Homo sapiens) (UniProt P36896); test: Inhibition of recombinant human GST-tagged ACVR1B (150 to 505 residues) expressed in baculovirus expression system using Ser/Thr 16 as substrate at 10 uM incubated for 60 mins by Z'-Lyte assay relative to control
[15] = biological target: Vascular endothelial growth factor receptor 1 (Homo sapiens) (UniProt P17948); test: Inhibition of recombinant human GST-tagged FLT1 (781 to 1338 residues) expressed in baculovirus expression system using Tyr 04 as substrate at 10 uM incubated for 60 mins by Z'-Lyte assay relative to control
[16] = biological target: Serine/threonine-protein kinase 25 (Homo sapiens) (UniProt O00506); test: Inhibition of recombinant human GST-tagged full length YSK1 expressed in baculovirus expression system using Ser/Thr 07 as substrate at 10 uM incubated for 60 mins by Z'-Lyte assay relative to control
[17] = biological target: RAC-alpha serine/threonine-protein kinase (Homo sapiens) (UniProt P31749); test: Inhibition of recombinant human His-tagged full length AKT1 expressed in baculovirus expression system using Ser/Thr 06 as substrate at 10 uM incubated for 60 mins by Z'-Lyte assay relative to control
[18] = biological target: Tyrosine-protein kinase ZAP-70 (Homo sapiens) (UniProt P43403); test: Inhibition of recombinant human His-tagged full length ZAP70 expressed in baculovirus expression system using Tyr 07 as substrate at 10 uM incubated for 60 mins by Z'-Lyte assay relative to control
[19] = biological target: MAP kinase-activated protein kinase 3 (Homo sapiens) (UniProt Q16644); test: Inhibition of recombinant human His-tagged full length MAPKAPK3 expressed in baculovirus expression system using Ser/Thr 04 as substrate at 10 uM incubated for 60 mins by Z'-lyte assay relative to control
[20] = biological target: Insulin receptor-related protein (Homo sapiens) (UniProt P14616); test: Inhibition of recombinant human GST-tagged IRR (944 to 1297 residues) expressed in baculovirus expression system using Tyr 04 as substrate at 10 uM incubated for 60 mins by Z'-lyte assay relative to control
[21] = biological target: Serine/threonine-protein kinase 24 (Homo sapiens) (UniProt Q9Y6E0); test: Inhibition of recombinant human GST-tagged full length MST3 expressed in baculovirus expression system using Ser/Thr 07 as substrate at 10 uM incubated for 60 mins by Z'-lyte assay relative to control
[22] = biological target: Ribosomal protein S6 kinase alpha-2 (Homo sapiens) (UniProt Q15349); test: Inhibition of recombinant human GST-tagged full length RSK3 expressed in insect expression system using Ser/Thr 06 as substrate at 10 uM incubated for 60 mins by Z'-Lyte assay relative to control
[23] = biological target: Serine/threonine-protein kinase 4 (Homo sapiens) (UniProt Q13043); test: Inhibition of recombinant human GST-tagged full length MST1 expressed in baculovirus expression system using Ser/Thr 01 as substrate at 10 uM incubated for 60 mins by Z'-lyte assay relative to control
Sequence of Serine/threonine-protein kinase 4 (Homo sapiens) (Q13043 whole entry): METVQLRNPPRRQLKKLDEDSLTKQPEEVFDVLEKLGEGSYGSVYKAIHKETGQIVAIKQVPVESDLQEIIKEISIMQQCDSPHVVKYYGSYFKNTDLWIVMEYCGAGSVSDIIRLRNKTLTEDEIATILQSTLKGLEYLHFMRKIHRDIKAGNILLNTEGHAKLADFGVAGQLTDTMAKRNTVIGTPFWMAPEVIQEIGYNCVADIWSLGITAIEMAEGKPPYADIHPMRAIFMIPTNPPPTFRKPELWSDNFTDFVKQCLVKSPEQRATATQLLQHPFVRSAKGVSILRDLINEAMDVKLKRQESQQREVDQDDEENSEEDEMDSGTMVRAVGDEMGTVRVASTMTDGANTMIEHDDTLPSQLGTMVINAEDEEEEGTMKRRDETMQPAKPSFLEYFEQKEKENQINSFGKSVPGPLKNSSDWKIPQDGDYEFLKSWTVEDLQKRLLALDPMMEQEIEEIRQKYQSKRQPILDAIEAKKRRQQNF

Sequence of Serine/threonine-protein kinase 25 (Homo sapiens) (O00506 whole entry, looked up): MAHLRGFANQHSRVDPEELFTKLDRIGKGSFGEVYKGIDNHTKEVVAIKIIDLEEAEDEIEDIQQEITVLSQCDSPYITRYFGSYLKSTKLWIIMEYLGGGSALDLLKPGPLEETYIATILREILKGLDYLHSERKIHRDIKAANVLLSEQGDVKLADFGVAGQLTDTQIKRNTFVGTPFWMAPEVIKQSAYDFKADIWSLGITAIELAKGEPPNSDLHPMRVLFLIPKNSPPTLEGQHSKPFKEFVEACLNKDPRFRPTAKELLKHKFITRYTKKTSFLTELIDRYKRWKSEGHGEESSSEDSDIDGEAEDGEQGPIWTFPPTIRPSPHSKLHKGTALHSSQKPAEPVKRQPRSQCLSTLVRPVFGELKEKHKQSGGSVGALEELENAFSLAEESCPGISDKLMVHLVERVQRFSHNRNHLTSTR
Sequence of Activin receptor type-1B (Homo sapiens) (P36896 whole entry, the tested form may be a part): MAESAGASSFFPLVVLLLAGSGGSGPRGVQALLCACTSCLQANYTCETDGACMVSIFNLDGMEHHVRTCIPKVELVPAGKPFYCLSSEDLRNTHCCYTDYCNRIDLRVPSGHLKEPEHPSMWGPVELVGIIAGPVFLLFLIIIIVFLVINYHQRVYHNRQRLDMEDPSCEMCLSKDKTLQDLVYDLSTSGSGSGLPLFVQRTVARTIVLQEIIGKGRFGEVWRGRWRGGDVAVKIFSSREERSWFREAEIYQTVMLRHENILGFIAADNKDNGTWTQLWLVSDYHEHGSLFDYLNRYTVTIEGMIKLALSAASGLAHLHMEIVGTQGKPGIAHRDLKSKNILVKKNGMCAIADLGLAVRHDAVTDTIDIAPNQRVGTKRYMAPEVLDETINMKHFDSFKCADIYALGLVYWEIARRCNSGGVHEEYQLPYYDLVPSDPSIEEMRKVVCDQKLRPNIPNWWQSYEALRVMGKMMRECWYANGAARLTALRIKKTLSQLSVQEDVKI
Sequence of Activated CDC42 kinase 1 (Homo sapiens) (Q07912 whole entry, looked up, the tested form may be a part): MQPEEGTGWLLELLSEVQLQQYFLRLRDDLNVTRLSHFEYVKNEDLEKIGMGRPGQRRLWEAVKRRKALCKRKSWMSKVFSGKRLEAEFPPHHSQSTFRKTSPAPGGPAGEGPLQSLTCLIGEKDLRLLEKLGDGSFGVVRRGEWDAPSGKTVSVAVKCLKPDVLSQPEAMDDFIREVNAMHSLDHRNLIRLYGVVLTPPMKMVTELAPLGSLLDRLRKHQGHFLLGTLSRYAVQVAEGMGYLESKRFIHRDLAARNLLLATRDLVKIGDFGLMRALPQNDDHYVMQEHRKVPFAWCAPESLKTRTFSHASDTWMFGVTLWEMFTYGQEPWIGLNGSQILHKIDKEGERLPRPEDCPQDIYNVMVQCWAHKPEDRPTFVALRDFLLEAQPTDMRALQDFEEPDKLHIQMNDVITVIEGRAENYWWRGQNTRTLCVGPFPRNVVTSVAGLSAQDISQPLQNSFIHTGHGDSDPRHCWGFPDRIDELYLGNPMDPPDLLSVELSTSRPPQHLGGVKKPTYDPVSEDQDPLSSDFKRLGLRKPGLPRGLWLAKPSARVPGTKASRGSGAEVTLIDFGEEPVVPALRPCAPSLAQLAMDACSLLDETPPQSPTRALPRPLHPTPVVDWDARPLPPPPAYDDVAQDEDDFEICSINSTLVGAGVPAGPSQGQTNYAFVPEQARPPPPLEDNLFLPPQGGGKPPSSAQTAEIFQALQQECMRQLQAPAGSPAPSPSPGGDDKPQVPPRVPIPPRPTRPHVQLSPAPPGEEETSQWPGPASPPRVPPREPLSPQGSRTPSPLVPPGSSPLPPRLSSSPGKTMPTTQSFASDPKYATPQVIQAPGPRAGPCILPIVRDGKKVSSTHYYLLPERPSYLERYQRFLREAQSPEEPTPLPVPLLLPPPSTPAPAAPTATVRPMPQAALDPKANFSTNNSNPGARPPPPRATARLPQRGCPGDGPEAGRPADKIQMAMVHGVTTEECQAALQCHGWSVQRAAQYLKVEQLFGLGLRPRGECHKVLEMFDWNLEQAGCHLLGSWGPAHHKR
Sequence of Epidermal growth factor receptor (Homo sapiens), P00533 [L858R,T790M] (P00533 whole entry T790M/L858R, looked up, the tested form may be a part): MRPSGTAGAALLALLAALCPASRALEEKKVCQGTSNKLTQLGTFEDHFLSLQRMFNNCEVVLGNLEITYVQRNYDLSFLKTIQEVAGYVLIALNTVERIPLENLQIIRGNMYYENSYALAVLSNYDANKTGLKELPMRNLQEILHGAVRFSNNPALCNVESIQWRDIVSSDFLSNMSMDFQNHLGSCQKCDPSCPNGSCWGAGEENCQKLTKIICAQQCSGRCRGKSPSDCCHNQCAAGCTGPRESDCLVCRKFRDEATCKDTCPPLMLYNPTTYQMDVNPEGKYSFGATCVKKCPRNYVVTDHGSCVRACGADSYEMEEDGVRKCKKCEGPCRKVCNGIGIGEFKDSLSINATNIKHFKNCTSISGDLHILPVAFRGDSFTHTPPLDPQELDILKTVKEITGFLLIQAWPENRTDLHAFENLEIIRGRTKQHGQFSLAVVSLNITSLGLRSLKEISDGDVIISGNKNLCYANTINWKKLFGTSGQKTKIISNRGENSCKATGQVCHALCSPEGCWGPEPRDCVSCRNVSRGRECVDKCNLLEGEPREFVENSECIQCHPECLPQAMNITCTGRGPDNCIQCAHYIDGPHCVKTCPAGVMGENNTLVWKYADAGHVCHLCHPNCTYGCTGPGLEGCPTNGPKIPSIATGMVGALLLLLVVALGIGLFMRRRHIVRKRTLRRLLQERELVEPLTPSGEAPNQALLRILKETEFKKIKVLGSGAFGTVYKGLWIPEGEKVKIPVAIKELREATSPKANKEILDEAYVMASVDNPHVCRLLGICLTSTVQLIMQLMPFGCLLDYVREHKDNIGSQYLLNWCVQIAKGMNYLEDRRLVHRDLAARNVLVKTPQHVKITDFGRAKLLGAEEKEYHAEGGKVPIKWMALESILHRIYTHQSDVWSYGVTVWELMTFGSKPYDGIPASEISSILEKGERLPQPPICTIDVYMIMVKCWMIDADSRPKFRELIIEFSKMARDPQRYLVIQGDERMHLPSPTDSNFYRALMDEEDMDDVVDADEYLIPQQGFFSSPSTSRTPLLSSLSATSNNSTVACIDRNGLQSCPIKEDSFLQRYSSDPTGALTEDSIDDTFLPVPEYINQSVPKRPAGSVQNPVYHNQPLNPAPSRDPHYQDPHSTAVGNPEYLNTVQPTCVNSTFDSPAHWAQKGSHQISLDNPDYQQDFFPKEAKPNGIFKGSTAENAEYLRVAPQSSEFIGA
Sequence of Insulin receptor-related protein (Homo sapiens) (P14616 27-742 limits assumed): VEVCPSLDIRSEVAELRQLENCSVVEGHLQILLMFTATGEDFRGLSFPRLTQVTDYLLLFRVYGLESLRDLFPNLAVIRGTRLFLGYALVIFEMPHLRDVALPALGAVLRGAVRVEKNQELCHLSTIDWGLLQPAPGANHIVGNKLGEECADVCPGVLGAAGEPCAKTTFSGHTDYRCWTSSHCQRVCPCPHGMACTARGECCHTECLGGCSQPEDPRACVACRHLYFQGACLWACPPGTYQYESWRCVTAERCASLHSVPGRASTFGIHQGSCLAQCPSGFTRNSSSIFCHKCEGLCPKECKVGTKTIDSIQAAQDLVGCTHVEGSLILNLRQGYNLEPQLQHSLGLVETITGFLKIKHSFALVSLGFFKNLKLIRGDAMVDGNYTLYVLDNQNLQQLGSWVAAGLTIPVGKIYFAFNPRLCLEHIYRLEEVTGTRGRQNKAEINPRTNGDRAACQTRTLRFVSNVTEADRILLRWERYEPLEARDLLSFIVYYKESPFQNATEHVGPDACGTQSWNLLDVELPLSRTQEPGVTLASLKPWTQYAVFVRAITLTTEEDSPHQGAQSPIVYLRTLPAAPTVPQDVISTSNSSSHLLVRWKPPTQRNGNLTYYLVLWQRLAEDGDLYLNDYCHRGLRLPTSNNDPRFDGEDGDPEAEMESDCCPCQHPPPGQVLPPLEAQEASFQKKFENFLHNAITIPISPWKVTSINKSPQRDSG
Sequence of Insulin receptor-related protein (Homo sapiens) (P14616 747-1297 limits assumed): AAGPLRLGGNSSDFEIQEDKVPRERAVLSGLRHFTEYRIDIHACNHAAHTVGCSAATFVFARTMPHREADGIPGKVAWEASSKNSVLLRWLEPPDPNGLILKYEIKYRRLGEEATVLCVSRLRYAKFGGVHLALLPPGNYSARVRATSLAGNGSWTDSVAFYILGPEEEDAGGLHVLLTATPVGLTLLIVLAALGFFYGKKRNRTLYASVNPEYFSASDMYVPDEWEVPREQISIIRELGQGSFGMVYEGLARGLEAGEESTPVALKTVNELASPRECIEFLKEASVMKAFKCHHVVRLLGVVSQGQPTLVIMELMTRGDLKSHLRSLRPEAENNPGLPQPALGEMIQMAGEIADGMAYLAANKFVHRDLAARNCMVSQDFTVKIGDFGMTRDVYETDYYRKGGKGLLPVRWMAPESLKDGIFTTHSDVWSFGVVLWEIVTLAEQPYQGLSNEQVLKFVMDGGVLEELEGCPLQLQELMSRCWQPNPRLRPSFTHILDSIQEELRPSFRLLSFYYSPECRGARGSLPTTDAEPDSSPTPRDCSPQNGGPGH

`CN1C(=O)[C@@H](NC(=O)c2n[nH]c3ncc(C(F)(F)C(F)(F)F)cc23)COc2ccccc21` was tested, and the inhibition [1] was 6%, the inhibition [2] was 0.5% and the inhibition [3] was 7%. It also gave an inhibition [4] of -5%, an inhibition [5] of 1.5% and an inhibition [6] of 7%. The inhibition [7] was 5.5%, the inhibition [8] was 3% and the inhibition [9] was 6%. For the same compound, the inhibition [10] was 5.5%, the inhibition [11] was 7% and the inhibition [12] was 8.5%. For the same compound, the inhibition [13] was 3%, the inhibition [14] was -1.5% and the inhibition [15] was 3.5%. For the same compound, the inhibition [16] was 7%, the inhibition [17] was -0.5% and the inhibition [18] was -2%. It also gave an inhibition [19] of 0.5%, an inhibition [20] of 6.5% and an inhibition [21] of 6%. The inhibition [22] was -4.5% and the inhibition [23] was 7.5%.
